# From patent US9464084B2, “P2X7 modulators” (Janssen Pharmaceutica NV, priority 2013, dated 2016)
# Molecular target: P2X7 (Homo sapiens (Human), UniProt Q99572)
# Experiment: P2X7 antagonism in human PBMCs (LPS + Bz-ATP induced IL-1β release, ELISA);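 note: PBMCs from donor human blood, with a further 1.5 h incubation of the cells in the assay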
# Assay type: cell-based
# Conditions: compound 1 μM, LPS 30 ng/ml, Bz-ATP 0.5 mM
# Protocol: Human blood was collected using a blood donor program. PBMCs were isolated from blood using a Ficoll density gradient technique. Briefly, blood was laid on Ficoll solution and centrifuged at RT for 20 minutes at 2000 rpm. The buffy layer (between red blood cells and plasma) was carefully collected by aspiration, washed with PBS and centrifuged again at 1500 rpm for 15 minutes. The resulting cell pellet was washed and plated on 96 well-plates for experiments. For the Mouse/Human Whole Blood experiments, 150 μl of either mouse or human blood was platted on 96 well-plates. Lipopolysaccharide (LPS) (30 ng/ml) was added to each well and incubated for 1 hour. Test compounds were then added and incubated for 30 minutes. The P2X7 agonist, 2′(3′)-O-(4-benzoylbenzoyl) adenosine 5′ triphosphate (Bz-ATP) was then added at a final concentration of 0.5 mM (PBMC) or 1 mM (blood). Cells were incubated for an additional 1.5 hours. At that point, supernatant was collected and stored for IL-1β assay using manufacturer's protocol for enzyme-linked immunosorbent assay (ELISA). Data was expressed as percent control, where control is defined as the difference in IL-1β release in LPS+Bz-ATP samples and LPS only samples. Data was plotted as response (% control) versus concentration to generate IC50 values.
# Sequence of P2X7 (Q99572 whole entry): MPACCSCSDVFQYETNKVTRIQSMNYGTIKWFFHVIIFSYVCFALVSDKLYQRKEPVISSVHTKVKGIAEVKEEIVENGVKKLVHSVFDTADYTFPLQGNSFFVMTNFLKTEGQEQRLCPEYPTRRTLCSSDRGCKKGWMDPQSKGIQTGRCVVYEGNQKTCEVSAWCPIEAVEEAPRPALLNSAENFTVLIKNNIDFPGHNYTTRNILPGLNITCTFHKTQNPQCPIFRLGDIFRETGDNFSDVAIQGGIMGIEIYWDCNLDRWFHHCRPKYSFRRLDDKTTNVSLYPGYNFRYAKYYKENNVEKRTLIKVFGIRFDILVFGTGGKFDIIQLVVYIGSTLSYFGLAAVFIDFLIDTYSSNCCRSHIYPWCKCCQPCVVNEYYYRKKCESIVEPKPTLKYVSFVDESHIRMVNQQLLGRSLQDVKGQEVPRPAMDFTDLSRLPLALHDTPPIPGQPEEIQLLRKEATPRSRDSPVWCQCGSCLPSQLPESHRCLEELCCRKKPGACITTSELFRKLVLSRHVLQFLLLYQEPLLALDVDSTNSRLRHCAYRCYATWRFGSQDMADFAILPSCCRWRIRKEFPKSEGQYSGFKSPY
row,Compound,PBMC 1 μM (% control)
1,"CC1c2nnn(-c3cnccn3)c2CCN1C(=O)c1cccc(C(F)(F)F)c1Cl (centres unmarked) [Example 73, 5-{[2-Chloro-3-(trifluoromethyl)phenyl]carbonyl}-4-methyl-1-pyrazin-2-yl-4,5,6,7-tetrahydro-1H-[1,2,3]triazolo[4,5-c]pyridine]",4.3 % control
2,"O=C(c1cccc(Cl)c1Cl)N1CCc2ncn(-c3ccccn3)c2C1 [Example 9, (2,3-Dichlorophenyl)(3-(pyridin-2-yl)-6,7-dihydro-3H-imidazo[4,5-c]pyridin-5(4H)-yl)methanone]",83.7 % control
3,"CC1c2ncn(-c3ccccc3)c2CCN1C(=O)c1cccc(C(F)(F)F)c1Cl (centres unmarked) [Example 12, (2-Chloro-3-(trifluoromethyl)phenyl)(4-methyl-1-phenyl-6,7-dihydro-1H-imidazo[4,5-c]pyridin-5(4H)-yl)methanone]",11.2 % control
4,"O=C(O)C1c2ncn(-c3ccccn3)c2CCN1C(=O)c1cccc(C(F)(F)F)c1Cl (centres unmarked) [Example 33, 5-{[2-Chloro-3-(trifluoromethyl)phenyl]carbonyl}-1-pyridin-2-yl-4,5,6,7-tetrahydro-1H-imidazo[4,5-c]pyridine-4-carboxylic acid]",100.7 % control

# Same assay, conditions: compound 10 μM, LPS 30 ng/ml, Bz-ATP 0.5 mM
row,Compound,PBMC 10 μM (% control)
1,"Cc1c(C(=O)N2CCc3c(nnn3-c3ncccn3)[C@H]2C)cccc1C(F)(F)F (single isomer, unassigned) [Example 188, (R*)-(4-methyl-1-(pyrimidin-2-yl)-6,7-dihydro-1H-[1,2,3]triazolo[4,5-c]pyridin-5(4H)-yl)(2-methyl-3-(trifluoromethyl)phenyl)methanone]",−0.7 % control
2,"Cc1ccnc(-n2nnc3c2CCN(C(=O)c2cccc(C(F)(F)F)c2Cl)[C@@H]3C)c1 (single isomer, unassigned) [Example 185, (R*)-(2-chloro-3-(trifluoromethyl)phenyl)(4-methyl-1-(4-methylpyridin-2-yl)-6,7-dihydro-1H-[1,2,3]triazolo[4,5-c]pyridin-5(4H)-yl)methanone]",−3.7 % control
3,"CC1c2ncn(-c3ccc(F)cn3)c2CCN1C(=O)c1cccc(C(F)(F)F)c1Cl (centres unmarked) [Example 11, (2-Chloro-3-(trifluoromethyl)phenyl)(1-(5-fluoropyridin-2-yl)-4-methyl-6,7-dihydro-1H-imidazo[4,5-c]pyridin-5(4H)-yl)methanone]",25.2 % control
4,"C[C@H]1c2ncn(-c3ccccn3)c2CCN1C(=O)c1cccc(C(F)(F)F)c1F (single isomer, unassigned) [Example 43, (4 S*)-5-{[2-Fluoro-3-(trifluoromethyl)phenyl]carbonyl}-4-methyl-1-pyridin-2-yl-4,5,6,7-tetrahydro-1H-imidazo[4,5-c]pyridine]",77.8 % control
5,"C[C@@H]1Cc2c(nnn2-c2ncc(F)cn2)CN1C(=O)c1ccc(Cl)c(F)c1Cl (single isomer, unassigned) [Example 217, (6R*)-5-[(2,4-Dichloro-3-fluorophenyl)carbonyl]-1-(5-fluoropyrimidin-2-yl)-6-methyl-4,5,6,7-tetrahydro-1H-[1,2,3]triazolo[4,5-c]pyridine]",60.8 % control
6,"O=C(c1ccc(Cl)cc1Cl)N1CCc2c(nnn2-c2ncccn2)C1 [Example 257, (2,4-dichlorophenyl)(1-(pyrimidin-2-yl)-6,7-dihydro-1H-[1,2,3]triazolo[4,5-c]pyridin-5(4H)-yl)methanone]",7.1 % control
7,"C[C@H]1c2ncn(-c3ccccn3)c2CCN1C(=O)c1cccc(C(F)(F)F)c1Cl (single isomer, unassigned) [Example 45, (4 S*)-5-{[2-Chloro-3-(trifluoromethyl)phenyl]carbonyl}-4-methyl-1-pyridin-2-yl-4,5,6,7-tetrahydro-1H-imidazo[4,5-c]pyridine]",29.4 % control
8,"CC1c2nnn(-c3cc[nH]n3)c2CCN1C(=O)c1cccc(C(F)(F)F)c1Cl (centres unmarked) [Example 85, 5-{[2-Chloro-3-(trifluoromethyl)phenyl]carbonyl}-4-methyl-1-(1H-pyrazol-3-yl)-4,5,6,7-tetrahydro-1H-[1,2,3]triazolo[4,5-c]pyridine]",24.7 % control
9,"Cc1ccnc(-n2nnc3c2CCN(C(=O)c2cccc(C(F)(F)F)c2Cl)C3C)c1 (centres unmarked) [Example 299, (2-chloro-3-(trifluoromethyl)phenyl)(4-methyl-1-(4-methylpyridin-2-yl)-6,7-dihydro-1H-[1,2,3]triazolo[4,5-c]pyridin-5(4H)-yl)methanone]",1.5 % control
10,"O=C(c1cccc(C(F)(F)F)c1Cl)N1CCc2c(nnn2-c2ncccn2)C1 [Example 65, 5-{[2-Chloro-3-(trifluoromethyl)phenyl]carbonyl}-1-pyrimidin-2-yl-4,5,6,7-tetrahydro-1H-[1,2,3]triazolo[4,5-c]pyridine]",5.8 % control
11,"C[C@@H]1Cc2c(nnn2-c2ncc(F)cn2)CN1C(=O)c1cccc(C(F)(F)F)c1F [Example 219, (6R)-1-(5-Fluoropyrimidin-2-yl)-5-{[2-fluoro-3-(trifluoromethyl)phenyl]carbonyl}-6-methyl-4,5,6,7-tetrahydro-1H-[1,2,3]triazolo[4,5-c]pyridine]",76.5 % control
12,"CC1c2nnn(-c3ncc(F)cn3)c2CCN1C(=O)c1cccc(C(F)(F)F)c1Cl (centres unmarked) [Example 153, (2-Chloro-3-(trifluoromethyl)phenyl)(1-(5-fluoropyrimidin-2-yl)-4-methyl-6,7-dihydro-1H-[1,2,3]triazolo[4,5-c]pyridin-5(4H)-yl)methanone]",28.9 % control
13,"C[C@H]1Cc2c(nnn2-c2ncccc2F)CN1C(=O)c1cccc(Cl)c1Cl (single isomer, unassigned) [Example 166, (6S*)-5-[(2,3-Dichlorophenyl)carbonyl]-1-(3-fluoropyridin-2-yl)-6-methyl-4,5,6,7-tetrahydro-1H-[1,2,3]triazolo[4,5-c]pyridine]",0.6 % control
14,"C[C@H]1Cc2c(nnn2-c2ncc(F)cn2)CN1C(=O)c1ccnc(C(F)(F)F)c1F (single isomer, unassigned) [Example 228, (S*)-(3-fluoro-2-(trifluoromethyl)pyridin-4-yl)(1-(5-fluoropyrimidin-2-yl)-6-methyl-6,7-dihydro-1H-[1,2,3]triazolo[4,5-c]pyridin-5(4H)-yl)methanone]",0.1 % control
15,"Cc1c(C(=O)N2Cc3nnn(-c4ncc(F)cn4)c3C[C@@H]2C)cccc1C(F)(F)F (single isomer, unassigned) [Example 208, (6S*)-1-(5-Fluoropyrimidin-2-yl)-6-methyl-5-{[2-methyl-3-(trifluoromethyl)phenyl]carbonyl}-4,5,6,7-tetrahydro-1H-[1,2,3]triazolo[4,5-c]pyridine]",20.9 % control
16,"Cc1cccc(-n2nnc3c2CCN(C(=O)c2cccc(C(F)(F)F)c2Cl)[C@@H]3C)n1 (single isomer, unassigned) [Example 226, (R*)-(2-chloro-3-(trifluoromethyl)phenyl)(4-methyl-1-(6-methylpyridin-2-yl)-6,7-dihydro-1H-[1,2,3]triazolo[4,5-c]pyridin-5(4H)-yl)methanone]",58.0 % control
